Experiments:
[1] = test system: human DNMT1; test: ELISA EpiQuik DNA methyltransferase (DNMT) activity/inhibitor assay; assay type: biochemical; settings: for Inh% at 50 μM: 50 μM compound; for Inh% at 50 μM / Inh% at 100 μM: 200 nM purified DNMT1, EpiQuik kit; for Inh% at 100 μM: 100 μM compound; for DNMT1 inhibitory activity: SAR discussion of Table 1
Method: All the compounds were first screened using an ELISA EpiQuik DNA methyltransferase (DNMT) activity/inhibitor assay kit (Epigentek). To measure the effects of the compounds on human DNMT1 activity, 200 nM purified DNMT1 was incubated with 50 µM and 100 µM of the different compounds and S-adenosylmethionine in the DNMT assay buffer in the assay plate at 37 °C for 2 h[36]. Next, every sample was incubated with the capture and detection antibody, followed by incubation with developer solution for 10 min at room temperature. The absorbance was measured at 450 nm using a POLARstar Omega microplate reader (BMG). S-Adenosylhomocysteine (AdoHcy) was used as a positive control. Methylation inhibition assays for EZH2, LSD, and G9a were performed in modified Tris, pH 9.0, buffer using AlphaLisa technology. An amount of 10 µL of the reaction system contained a corresponding concentration of SAM (Sigma) (EZH2 50 µM, LSD 50 µM, and G9a 50 µM), which was the Km value in each enzymatic reaction, plus 100 nM biotinylated peptide H3 (1–21) (synthesis by GLChina) and the relevant enzyme concentration (0.03 nM EZH2, 0.03 nM LSD, and 0.03 nM G9a). The proteins were preincubated with various compound concentrations for 15 min at room temperature before the substrate and SAM were added. After 60 min of incubation at room temperature, acceptor and donor AlphaLisa beads were added according to the manufacturer’s recommendations. The signals were read in Alpha mode with an EnSpire multimode plate reader (PerkinElmer). IC50 values were derived by fitting the data for the inhibition percentage to a dose-response curve by non-linear regression in GraphPad Prism 5.0[20].
DNMT1 inhibition test was performed on 30 candidates to verify their biochemical activities. The EpiQuik DNA methyl-transferase (DNMT) activity/inhibitor assay kit (Epigentek) was used to identify the activity of synthetic compounds.

[2] = target: DNMT1 (Homo sapiens, UniProt P26358); test: H3-labelled radioactive methylation assay; assay type: biochemical; settings: H3-labeled radioactive methylation assay; 40 nM DNMT1
Method: The DNMT1 radioactive methylation inhibition assays were performed in 30 µL reactions containing 0.1 µM adenosyl-L-methionine S-[methyl-^3H] (^3H-SAM, ^15 Ci/mmol, PerkinElmer), 0.25 µg/mL poly (dI-dC)·poly (dI-dC) (Sigma), 40 nM DNMT1 in 50 mM Tris-HCl, pH 8.0, 1 mM DTT, 5% glycerol, and 100 µg/mL BSA. The proteins were preincubated with a range of compound concentrations for 15 min at room temperature before adding the substrate and [^3H] SAM. After 60 min of incubation at 37 °C, the reaction systems were transferred to a MultiScreen HTS filter plate (Millipore), and the plate was washed 3 times with doubly distilled H2O via a vacuum. The radioactivity was determined by liquid scintillation counting (MicroBeta, PerkinElmer). IC50 values were derived by fitting the data for the inhibition percentage to a dose-response curve by non-linear regression in GraphPad Prism 5.0.
To quantitatively analyse DNMT1 inhibitory effect, the H^3-labelled radioactive methylation assay was conducted to measure the methyltransferase activity of DNMT1 at a range of concentrations for these compounds.

[3] = PK study in SD rats; assay type: in vivo; settings: rat, plasma, SD male rats; for AUC(0-t) / Tmax / half-life: mean ± SD (n = 3)
Method: In vivo pharmacokinetic properties of WK-22, WK-23, WK-27, and DC_517 were performed by Medicilon Company, Shanghai, China. SPF-grade SD male rats (8 groups, n = 3 rats per group) with a body weight of 230–260 g were purchased from Shanghai SIPPR-BK LAB Animal Ltd., Shanghai, China, and used for the pharmacokinetic analysis of the tested compounds. All animals were deprived of food overnight after the cannulation surgery. Subsequently, the tested compounds WK-23 and DC_517 were dissolved/suspended in 5% DMSO, 10% Solutol, and 85% water, and the tested compounds WK-22 and WK-27 were dissolved/suspended in 5% DMSO, 40% PEG400, and 55% saline for intravenous administration (i.v.) and oral administration (p.o.), respectively. A final dosage of 2.0 and 10.0 mg/kg rat of the formulated compounds was administered for i.v. and p.o. purposes, respectively, and the blood samples were taken at various time points during a 24 h period. At different time points, blood samples were collected from the femoral vein. The plasma samples were obtained after centrifugation (6800 g, 6 min, 2–8 °C) and stored at −80 °C until the assay. The AUC (area under concentration-time curve) was calculated through the trapezoidal rule with extrapolation to time infinity. The concentration of the compounds in the blood was analysed by LC-MS/MS (Shimadzu liquid chromatographic system and SCIEX Triple Quad 5500+ mass spectrometer, Applied Biosystems, Ontario, Canada). The Tmax, T1/2, and Cmax value was obtained through visual inspection of the plasma concentration-time curve. The Vss value was generated from DAS 3.2.8 software. The F value of WK-23 was calculated with the formula: F = (AUC p.o. × Dose i.v.)/(AUC i.v. × Dose p.o.) × 100%.

DNMT1, sequence (P26358 whole entry): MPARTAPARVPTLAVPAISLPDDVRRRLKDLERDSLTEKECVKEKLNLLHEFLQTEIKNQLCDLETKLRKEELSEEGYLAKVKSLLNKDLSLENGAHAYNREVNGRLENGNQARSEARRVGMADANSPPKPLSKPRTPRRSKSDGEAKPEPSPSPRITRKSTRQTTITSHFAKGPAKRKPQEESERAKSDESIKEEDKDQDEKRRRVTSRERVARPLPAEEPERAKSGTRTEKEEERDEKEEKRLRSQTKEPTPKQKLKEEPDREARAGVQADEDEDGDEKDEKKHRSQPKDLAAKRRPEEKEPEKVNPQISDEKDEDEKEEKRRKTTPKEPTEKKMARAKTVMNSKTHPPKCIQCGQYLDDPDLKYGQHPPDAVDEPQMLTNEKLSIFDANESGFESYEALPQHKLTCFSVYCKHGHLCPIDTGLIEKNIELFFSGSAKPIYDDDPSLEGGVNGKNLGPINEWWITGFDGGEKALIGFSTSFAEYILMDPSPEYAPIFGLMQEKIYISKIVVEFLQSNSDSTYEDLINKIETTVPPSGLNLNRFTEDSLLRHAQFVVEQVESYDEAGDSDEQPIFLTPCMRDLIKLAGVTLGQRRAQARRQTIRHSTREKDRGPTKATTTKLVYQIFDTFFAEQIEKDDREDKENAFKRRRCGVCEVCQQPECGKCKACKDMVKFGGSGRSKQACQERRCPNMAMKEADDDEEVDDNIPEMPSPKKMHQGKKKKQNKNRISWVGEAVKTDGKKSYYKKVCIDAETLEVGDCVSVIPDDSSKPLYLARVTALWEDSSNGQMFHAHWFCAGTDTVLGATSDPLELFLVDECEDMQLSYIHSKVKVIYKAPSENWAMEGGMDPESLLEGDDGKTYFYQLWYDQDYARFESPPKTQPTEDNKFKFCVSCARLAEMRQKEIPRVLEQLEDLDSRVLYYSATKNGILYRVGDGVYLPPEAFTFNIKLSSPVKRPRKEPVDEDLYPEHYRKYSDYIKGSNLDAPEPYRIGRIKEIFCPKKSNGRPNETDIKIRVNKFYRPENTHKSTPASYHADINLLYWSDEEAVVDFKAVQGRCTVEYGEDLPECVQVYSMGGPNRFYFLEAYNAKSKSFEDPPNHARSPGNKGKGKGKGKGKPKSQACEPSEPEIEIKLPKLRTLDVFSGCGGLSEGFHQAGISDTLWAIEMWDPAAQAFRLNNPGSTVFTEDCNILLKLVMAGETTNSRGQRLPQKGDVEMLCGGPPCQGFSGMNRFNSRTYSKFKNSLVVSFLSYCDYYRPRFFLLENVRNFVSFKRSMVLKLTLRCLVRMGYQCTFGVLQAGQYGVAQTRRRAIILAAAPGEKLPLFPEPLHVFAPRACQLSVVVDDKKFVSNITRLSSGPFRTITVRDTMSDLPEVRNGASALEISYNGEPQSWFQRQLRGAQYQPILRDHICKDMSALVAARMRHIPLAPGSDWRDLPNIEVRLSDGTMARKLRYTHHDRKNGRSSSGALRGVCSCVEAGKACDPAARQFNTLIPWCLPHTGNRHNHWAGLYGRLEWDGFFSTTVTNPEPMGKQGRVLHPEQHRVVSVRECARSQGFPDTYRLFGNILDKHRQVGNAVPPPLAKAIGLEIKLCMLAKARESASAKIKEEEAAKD

SMILES	melting point	Inh% at 50 μM [1]	Inh% at 100 μM [1]	further results
CCCCOCCCNCC(O)COC(Cn1c2ccccc2c2cc(F)ccc21)Cn1c2ccc(F)cc2c2cc(F)ccc21 (centres unmarked) [WK-29, 1-((3-Butoxypropyl)amino)-3-((1-(3,6-difluoro-9H-carbazol-9-yl)-3-(3-fluoro-9H-carbazol-9-yl)propan-2-yl)oxy)propan-2-ol]	151 to 153 °C	85%	80%	
OC[C@@H]1CN(CC(O)Cn2c3ccccc3c3cc(F)ccc32)CCN1 (stereo partly drawn) [WK-11, 1-(3-Fluoro-9H-carbazol-9-yl)-3-((S)-3-(hydroxymethyl)piperazin-1-yl)propan-2-ol]	35 to 37 °C	41%	50%	
COc1ccccc1OCCNCC(O)Cn1c2ccccc2c2cc(F)ccc21 (centres unmarked) [WK-4, 1-(3-fluoro-9H-carbazol-9-yl)-3-((2-(2-methoxyphenoxy)ethyl)amino) propan-2-ol]	55 to 57 °C	56%	60%	
C[C@@H](CNCC(O)Cn1c2ccccc2c2cc(F)ccc21)c1ccccc1 (stereo partly drawn) [WK-8, 1-(3-Fluoro-9H-carbazol-9-yl)-3-(((R)-2-phenylpropyl)amino)propan-2-ol]	100 to 102 °C	16%	58%	
OC(CNCCc1c[nH]c2ccccc12)Cn1c2ccccc2c2ccncc21 (centres unmarked) [WK-20, 1-((2-(1H-indol-3-yl)ethyl)amino)-3-(9H-pyrido[3,4-b]indol-9-yl)propan-2-ol]	85 to 87 °C	68%	77%	
OC(CNCCc1c[nH]c2ccccc12)COC(Cn1c2ccccc2c2ccccc21)Cn1c2ccccc2c2ccccc21 (centres unmarked) [DC_517, reference compound]		96%	98%	IC50 [2]: 2.3 µM; AUC(0-t) ([3]; iv, i.v. (2 mg/kg)): 1020 ± 60.9 ng·h/mL; Tmax ([3]; iv, i.v. (2 mg/kg)): 0.08 h; half-life ([3]; iv, i.v. (2 mg/kg)): 6.7 ± 0.2 h; bioavailability ([3]; po, p.o. 10 mg/kg vs i.v. 2 mg/kg, F = (AUC p.o. × Dose i.v.)/(AUC i.v. × Dose p.o.) × 100%): 38.7 ± 2.9%; AUC(0-t) ([3]; po, p.o. (10 mg/kg)): 2080 ± 113 ng·h/mL; Tmax ([3]; po, p.o. (10 mg/kg)): 6 h; half-life ([3]; po, p.o. (10 mg/kg)): 6.7 ± 0.9 h
CCCCOCCCNCC(O)Cn1c2ccc(F)cc2c2cc(F)ccc21 (centres unmarked) [WK-17, 1-((3-butoxypropyl)amino)-3-(3,6-difluoro-9H-carbazol-9-yl)propan-2-ol]	94 to 96 °C	73%	79%	
OC(CNCCc1ccc(F)cc1)Cn1c2ccccc2c2cc(F)ccc21 (centres unmarked) [WK-2, 1-(3-Fluoro-9H-carbazol-9-yl)-3-((4-fluorophenethyl)amino)propan-2-ol]	109 to 111 °C	55%	66%	
OC(CNCCc1c[nH]c2ccccc12)Cn1c2ccccc2c2cccnc21 (centres unmarked) [WK-21, 1-((2-(1H-indol-3-yl)ethyl)amino)-3-(9H-pyrido[2,3-b]indol-9-yl)propan-2-ol]	107 to 109 °C	39%	34%	
CCCCOCCCNCC(O)Cn1c2ccccc2c2cc(F)ccc21 (centres unmarked) [WK-5, 1-((3-Butoxypropyl)amino)-3-(3-fluoro-9H-carbazol-9-yl)propan-2-ol]	71 to 73 °C	59%	65%	

Second part, led by results:

melting point	Inh% at 50 μM [1]	Inh% at 100 μM [1]	SMILES	further results
118 to 120 °C	68%	79%	CC(O)CNCC(O)Cn1c2ccccc2c2cc(F)ccc21 (centres unmarked) [WK-6, 1-(3-Fluoro-9H-carbazol-9-yl)-3-((2-hydroxypropyl)amino)propan-2-ol]	
93 to 95 °C	27%	46%	COc1ccccc1OCCNCC(O)Cn1c2ccc(F)cc2c2cc(F)ccc21 (centres unmarked) [WK-16, 1-(3,6-Difluoro-9H-carbazol-9-yl)-3-((2-(2-methoxyphenoxy)ethyl)amino) propan-2-ol]	
114 to 116 °C	79%	84%	OC(CNCCc1ccc(F)cc1)Cn1c2ccc(F)cc2c2cc(F)ccc21 (centres unmarked) [WK-14, 1-(3,6-Difluoro-9H-carbazol-9-yl)-3-((4-fluorophenethyl)amino)propan-2-ol]	IC50 [2]: 6 µM
130 to 132 °C	25%	53%	OC(CNCc1ccc(F)cc1)Cn1c2ccccc2c2cc(F)ccc21 (centres unmarked) [WK-9, 1-(3-Fluoro-9H-carbazol-9-yl)-3-((4-fluorobenzyl)amino)propan-2-ol]	
130 to 132 °C	70%	87%	CC(O)CNCC(O)Cn1c2ccc(F)cc2c2cc(F)ccc21 (centres unmarked) [WK-18, 1-(3,6-Difluoro-9H-carbazol-9-yl)-3-((2-hydroxypropyl)amino)propan-2-ol]	IC50 [2]: 10 µM
57 to 59 °C	2.3%	2.6%	OC(CNC1CC1)COC(Cn1c2ccccc2c2cc(F)ccc21)Cn1c2ccccc2c2cc(F)ccc21 (centres unmarked) [WK-24, 1-((1,3-Bis(3-fluoro-9H-carbazol-9-yl)propan-2-yl)oxy)-3-(cyclopropylamino)propan-2-ol]	DNMT1 inhibitory activity [1]: inactive
	43%	88%	OC(CNCCc1c[nH]c2ccccc12)Cn1c2ccccc2c2ccccc21 (centres unmarked) [DC_05, reference compound]	IC50 [2]: 52 µM
71 to 73 °C	5.1%	−9.0%	CC(C)(C)OC(=O)N1CCN(CC(O)Cn2c3ccccc3c3cc(F)ccc32)C[C@H]1CO (stereo partly drawn) [WK-10, (2S)-tert-butyl 4-(3-(3-fluoro-9H-carbazol-9-yl)-2-hydroxypropyl)-2-(hydroxymethyl)piperazine-1-carboxylate]	
113 to 115 °C	91%	91%	OC(CNCCc1c[nH]c2ccccc12)COC(Cn1c2ccccc2c2cc(F)ccc21)Cn1c2ccc(F)cc2c2cc(F)ccc21 (centres unmarked) [WK-28, 1-((2-(1H-indol-3-yl)ethyl)amino)-3-((1-(3,6-difluoro-9H-carbazol-9-yl)-3-(3-fluoro-9H-carbazol-9-yl)propan-2-yl)oxy)propan-2-ol]	
74 to 76 °C	8.7%	−16%	CC(C)(C)OC(=O)N1CCN(CC(O)COC(Cn2c3ccccc3c3cc(F)ccc32)Cn2c3ccc(F)cc3c3cc(F)ccc32)C[C@@H]1CO (stereo partly drawn) [WK-26, (2R)-tert-butyl 4-(3-((1-(3,6-difluoro-9H-carbazol-9-yl)-3-(3-fluoro-9H-carbazol-9-yl)propan-2-yl)oxy)-2-hydroxypropyl)-2-(hydroxymethyl)piperazine-1-carboxylate]	DNMT1 inhibitory activity [1]: lost its activity

Source: publication PMC9186373, “Design, synthesis, and biological evaluation of novel carbazole derivatives as potent DNMT1 inhibitors with reasonable PK properties” (Journal of Enzyme Inhibition and Medicinal Chemistry, 2022)
